EC50 data for one compound are collected here from PMC4104544 (Cell, 2014).

For the experiment, the target named is OSBP (oxysterol-binding protein) (Homo sapiens, UniProt P22059). In words: cell-based.

pEC50: −log10 of the molar value.

Sequence of OSBP (oxysterol-binding protein) (P22059 2-807): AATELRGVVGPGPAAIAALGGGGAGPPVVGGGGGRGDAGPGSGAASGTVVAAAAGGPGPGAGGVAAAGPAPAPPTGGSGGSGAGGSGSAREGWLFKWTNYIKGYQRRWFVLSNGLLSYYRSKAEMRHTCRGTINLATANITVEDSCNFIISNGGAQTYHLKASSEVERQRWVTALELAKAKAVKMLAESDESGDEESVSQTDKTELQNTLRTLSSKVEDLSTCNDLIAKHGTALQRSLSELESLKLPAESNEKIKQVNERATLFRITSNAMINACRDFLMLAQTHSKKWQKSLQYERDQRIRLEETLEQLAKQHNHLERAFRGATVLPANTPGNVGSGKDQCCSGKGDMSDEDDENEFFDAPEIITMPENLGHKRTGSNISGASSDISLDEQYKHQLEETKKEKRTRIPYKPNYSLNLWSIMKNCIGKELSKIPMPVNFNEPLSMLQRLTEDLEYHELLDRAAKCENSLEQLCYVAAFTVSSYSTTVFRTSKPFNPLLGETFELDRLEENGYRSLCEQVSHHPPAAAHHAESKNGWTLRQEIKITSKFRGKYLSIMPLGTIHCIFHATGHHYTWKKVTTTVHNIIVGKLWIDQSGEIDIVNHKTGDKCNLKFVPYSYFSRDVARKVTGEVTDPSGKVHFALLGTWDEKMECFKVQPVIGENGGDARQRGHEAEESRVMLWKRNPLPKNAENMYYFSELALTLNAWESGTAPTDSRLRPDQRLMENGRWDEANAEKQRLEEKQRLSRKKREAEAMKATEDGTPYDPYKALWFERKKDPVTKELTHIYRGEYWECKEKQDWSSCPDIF
Sequence of OSBP (oxysterol-binding protein) (O75344 whole entry partner): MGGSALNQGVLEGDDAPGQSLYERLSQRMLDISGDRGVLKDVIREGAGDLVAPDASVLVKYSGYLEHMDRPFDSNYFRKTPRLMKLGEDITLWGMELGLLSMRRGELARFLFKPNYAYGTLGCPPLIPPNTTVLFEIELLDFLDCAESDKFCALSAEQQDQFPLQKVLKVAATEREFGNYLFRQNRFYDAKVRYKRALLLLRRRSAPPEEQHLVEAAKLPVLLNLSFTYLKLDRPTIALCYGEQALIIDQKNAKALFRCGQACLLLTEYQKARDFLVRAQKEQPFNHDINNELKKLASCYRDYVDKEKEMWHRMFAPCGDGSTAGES

`COc1ccc(C(=O)O[C@H]2[C@H](O[C@@H]3[C@@H](OC(C)=O)[C@H](O[C@H]4C[C@H]5[C@@H]6CC=C7C[C@@H](O)CC[C@]7(C)[C@H]6CC[C@]5(C)[C@@]4(O)[C@H](C)C(=O)CCC(C)C)OC[C@@H]3O)OC[C@@H](O)[C@@H]2O)cc1` [OSW-1] showed a pEC50 of 7.22.

Broadly, the pEC50 is −log10 of the EC50, conventionally taken in molar units. Read a high pEC50 as a low EC50.
